PMC7083851, “Extended pharmacodynamic responses observed upon PROTAC-mediated degradation of RIPK2” (Communications Biology, 2020)
Where “and” joins values, the source holds several entries; their conditions need not be identical. Identical values can stand only once.

Tests used:
[1] = tested on: L18-MDP-induced cytokine release; experiment: In vivo L18-MDP acute inflammation model, distal colon cytokines; design: species or system rat; key to cytokine level (fig 6g) / cytokine level (fig 6h) / cytokine level (fig 6i): cytokine concentration in pg/ml (MSD U-Plex); details: for cytokine level (fig 6g) / cytokine level (fig 6i) / cytokine level (fig 6h): distal colon, individual rats, beside L18-MDP control
Procedure: Cytokine levels were determined in serum generated from the terminal blood samples and in tissue lysates as detailed below.
(§1) Cytokine measurement assay: Cytokine levels were measured in rat plasma or rat PBMCs cell culture supernatants using rat V-Plex TNFα, in human plasma or human PBMCs cell culture supernatants with either TNFα tissue culture or 7-plex kit. Rat serum and tissues samples from the in vivo L18-MDP acute inflammation model were analyzed using the rat TNFα, Il-6 and IL-8 U-Plex kits. All kits provided by Meso Scale Discovery (MSD). Levels of cytokines spontaneously released from human colon biopsies cell culture supernatants were measured using Human IL-1 beta/IL-1F2 DuoSet ELISA (Bio-techne), Human IL-6 ELISA (Immunotools) and Human TNF-alpha DuoSet ELISA (Bio-techne). All samples were processed accordingly to the manufacturer’s instructions. The MSD plates were analyzed using the MSD sector imager 6000 plate reader and cytokines concentration (pg/ml) was obtained by using the MSD DISCOVERY WORKBENCH software version 4.0.12.1

[2] = tested on: spontaneous IL-1β, IL-6, and TNFα release; experiment: Spontaneous cytokine release (IL-1β, IL-6, TNFα) from Crohn's disease patient intestinal biopsies; type: cell-based, human; details: for IL-1b (Ctrl=DMSO = 100) / IL-6 (Ctrl=DMSO = 100) / TNFa (Ctrl=DMSO = 100): individual biopsies, fig 4e
Procedure: Colonic biopsies or tissues were obtained during endoscopy or via surgical resection from Crohn’s Disease (CD) or Ulcerative Colitis (UC) patients (St Bartholomew’s Hospital, London). All patients gave informed written consent. For surgical specimens, the mucosa was dissected away from the submucosa and cut into pieces of ~10–20 mg. […] The supernatants were collected for cytokine measurement as detailed in cytokines assay section while tissues were used to determine RIPK2 levels.
as §1

Rat intravenous PK = type: in vivo
Procedure: Rats (n = 3) received a single intravenous (IV) bolus administration (1 mg/kg, 4 mL/kg, n = 3 rats) formulated as a solution in saline with the pH adjusted to 4.0.
Aliquots of diluted whole blood (50:50) were analysed using quantitative high-performance liquid chromatography with tandem mass spectrometric detection (LC/MS/MS) following protein precipitation. […] PK parameters were generated following non-compartmental analysis (Phoenix® WinNonlin® (Certara, L.P., St. Louis, MO)) of the resulting concentration-time data.

**Q.** For `CN[C@@H](C)C(=O)N[C@H](C(=O)N1C[C@@H](NC(=O)c2cnc(N3CCN(CCCOc4cc5ncnc(Nc6n[nH]c(C)c6C)c5cc4S(=O)(=O)C(C)(C)C)CC3)cn2)C[C@H]1C(=O)Nc1c(F)cccc1F)C(C)(C)C` [PROTAC 6], which “cytokine level (fig 6g)” value ([1]; time 6 h) is on record?
**A.** 8.69 and 8.02 and 5.35 and 6.46 and 7.8

**Q.** And the “cytokine level (fig 6i)” value ([1]; time 6 h)?
**A.** 31.46 and 23.18 and 30.08 and 19.04 and 32.01

**Q.** What about the “cytokine level (fig 6h)” value ([1]; time 6 h) of the same molecule?
**A.** 3.67 and 4.23 and 2.54 and 4.43 and 8.37

**Q.** And the “cytokine level (fig 6g)” value ([1]; time 24 h)?
**A.** 4.03 and 4.53 and 7.05 and 7.3

**Q.** And the “cytokine level (fig 6i)” value ([1]; time 24 h)?
**A.** 16.22 and 17.82 and 19.15 and 9.84 and 7.71

**Q.** And the “cytokine level (fig 6h)” value ([1]; time 24 h)?
**A.** 8.38 and 32.32 and 14.19

**Q.** And the “cytokine level (fig 6g)” value ([1]; time 72 h)?
**A.** 28.89 and 34.42 and 15.25 and 46.36 and 44.94

**Q.** What about the “cytokine level (fig 6i)” value ([1]; time 72 h) of the same molecule?
**A.** 33.56 and 43.62 and 27.96 and 81.66 and 38.4

**Q.** What about the “cytokine level (fig 6h)” value ([1]; time 72 h) of the same molecule?
**A.** 48.27 and 55.56 and 29.21 and 61.98 and 48.03

**Q.** And the “cytokine level (fig 6g)” value ([1]; time 240 h)?
**A.** 191.84 and 104.55 and 3.3 and 94.35

**Q.** And the “cytokine level (fig 6i)” value ([1]; time 240 h)?
**A.** 85.43 and 111.93 and 35.63 and 31.07

**Q.** And the “cytokine level (fig 6h)” value ([1]; time 240 h)?
**A.** 84.17 and 74.27 and 51.45 and 69.43

**Q.** And the “cytokine level (fig 6g)” value ([1]; time 408 h)?
**A.** 87.06 and 148.63 and 32.92 and 94.97 and 44.56

**Q.** And the “cytokine level (fig 6i)” value ([1]; time 408 h)?
**A.** 82.16 and 113.16 and 73.99 and 122.46 and 42.47

**Q.** And the “cytokine level (fig 6h)” value ([1]; time 408 h)?
**A.** 89.41 and 138.46 and 73.92 and 116.87 and 57.61

**Q.** And the “release of TNFα and IL-8 in distal colon, in words” value ([1]; rat, 0.3 mg/kg SC, intravenous L18-MDP challenge)?
**A.** significantly inhibited for up to six days post-dose

**Q.** What about the IC50 ([2]; Homo sapiens, 24 h, read-out: IC50 inhibition of spontaneous cytokine release) of the same molecule?
**A.** 1 to 3 nM

**Q.** What about the “IL-1b (Ctrl=DMSO = 100)” value ([2]; compound concentration 0.05 nM) of the same molecule?
**A.** 94 and 86 and 97

**Q.** And the “IL-6 (Ctrl=DMSO = 100)” value ([2]; compound concentration 0.05 nM)?
**A.** 105 and 101 and 86

**Q.** What about the “TNFa (Ctrl=DMSO = 100)” value ([2]; compound concentration 0.05 nM) of the same molecule?
**A.** 90 and 96

**Q.** And the “IL-1b (Ctrl=DMSO = 100)” value ([2]; compound concentration 0.5 nM)?
**A.** 59 and 61 and 39 and 57

**Q.** And the “IL-6 (Ctrl=DMSO = 100)” value ([2]; compound concentration 0.5 nM)?
**A.** 98 and 80 and 79 and 97 and 84 and 33

**Q.** And the “TNFa (Ctrl=DMSO = 100)” value ([2]; compound concentration 0.5 nM)?
**A.** 87 (2×) and 88 and 52

**Q.** What about the “IL-1b (Ctrl=DMSO = 100)” value ([2]; compound concentration 5 nM) of the same molecule?
**A.** 50 and 72 and 71 and 12 and 58 and 31 and 5 and 56 and 44 and 41 (2×) and 49 and 74 and 81

**Q.** And the “IL-6 (Ctrl=DMSO = 100)” value ([2]; compound concentration 5 nM)?
**A.** 56 and 35 and 85 (2×) and 14 (2×) and 49 and 48 and 89 and 101 and 72 and 66 and 70 and 53

**Q.** And the “TNFa (Ctrl=DMSO = 100)” value ([2]; compound concentration 5 nM)?
**A.** 38 and 23 and 69 (2×) and 35 (2×) and 42 and 24 and 87 and 58 and 34 and 11 and 66 and 31 and 41

**Q.** And the “IL-1b (Ctrl=DMSO = 100)” value ([2]; compound concentration 50 nM)?
**A.** 12 (2×) and 26 and 66 and 31 and 32 and 4 and 29 and 9 and 18 and 69 and 5 and 52 and 14

**Q.** What about the “IL-6 (Ctrl=DMSO = 100)” value ([2]; compound concentration 50 nM) of the same molecule?
**A.** 35 and 29 and 12 (2×) and 31 (2×) and 16 (2×) and 75 and 44 and 24 and 50 and 63 and 23 and 57

**Q.** What about the “TNFa (Ctrl=DMSO = 100)” value ([2]; compound concentration 50 nM) of the same molecule?
**A.** 42 and 16 and 50 (2×) and 37 (2×) and 0 and 30 (2×) and 24 and 78 and 25 and 60 and 34 and 59

**Q.** Which “mean intravenous clearance in rats, in words” value (Rat intravenous PK; in vivo, iv) does the source give for `CN[C@@H](C)C(=O)N[C@H](C(=O)N1CCC[C@H]1c1nc(C(=O)c2ccc(F)cc2)cs1)C1CCN(C(=O)c2cnc(N3CCN(CCOc4cc5ncnc(Nc6n[nH]c(C)c6C)c5cc4S(=O)(=O)C(C)(C)C)CC3)nc2)CC1` [PROTAC 4] here?
**A.** less than a quarter of liver blood flow

**Q.** And the clearance (Rat intravenous PK; male, Sprague Dawley (PROTAC 4), Han Wistar (PROTAC 6), whole blood, IV bolus (4: 2 mg/kg; 6: 1 mg/kg))?
**A.** 18 mL/min/kg

**Q.** And the half-life (Rat intravenous PK; male, Sprague Dawley (PROTAC 4), Han Wistar (PROTAC 6), whole blood, IV bolus (4: 2 mg/kg; 6: 1 mg/kg), read-out: Rat T½ (converted))?
**A.** 6.9 h

**Q.** And the Vd (Rat intravenous PK; male, Sprague Dawley (PROTAC 4), Han Wistar (PROTAC 6), whole blood, IV bolus (4: 2 mg/kg; 6: 1 mg/kg), read-out: Rat Vdss)?
**A.** 11 L/kg
